Test results reported in patent US20110189686A1, “SCREENING FOR MODULATORS OF CYP2B15 AND/OR GPD1 FOR THE TREATMENT OF ACNE, OF SEBORRHOEIC DERMATITIS OR OF HYPERSEBORRHOEA” (Galderma Research & Development, priority 2008, published 2011).

Legend:
GPD1 [1] = assay: Real-time PCR of GPD1 expression in rat sebaceous gland (epidermal split) after topical PPARgamma agonist, kinetics; format: in vivo; conditions: topical 1% in acetone, female FUZZY rats, standardized to 18S, versus carrier group
Procedure: (§1) Skin biopsies are taken (6 samples of skin excised per rat) in order to analyze the expression of the genes (RNA extraction, reverse transcriptase and real-time PCR). The samples are stored at 4° C. overnight before incubation in 1 M sodium bromide (NaBr) for 2 hours at 37° C. After incubation, the samples are separated into epidermis or dermis. The epidermal samples are stored at 20° C. Under these conditions, the sebaceous glands are in the epidermal split. PCRs are carried out, beginning with the cDNAs originating from the epidermal splits containing sebaceous glands from control rats or rats treated with a PPARγ agonist: the mRNA is extracted using a column and quantified. The quality of the mRNAs is measured and is represented by the 18S/28S ratio. The results are standardized with respect to 18S, expressed as relative induction versus untreated animals (carrier group). The statistical analysis is obtained using internal software based on a modified Monte Carlo statistical analysis.

CYP2B15 [2] = assay: Real-time PCR of CYP2B15 expression in rat sebaceous gland (epidermal split) after topical PPARgamma agonist, kinetics; format: in vivo; conditions: topical 1% in acetone, female FUZZY rats, standardized to 18S, versus carrier group
Source text: as §1, with “• Strain: Ico:HSd:FUZZY-fz • Gender: female • Age: 10 weeks Number per batch: 40 (8 animals per group) Treatment: Route of administration: topical • Compound/batch: PPARgamma agonists: • A: 5-{4-[2-(methylpyridin-2-ylamino)ethoxy]benzyl}thiazolidine-2,4-dione • B: 2-(methoxyethoxymethoxy)naphthalene-2-carboxylic acid [4′-(2,4-dioxothiazolidin-5-ylmethyl)biphenyl-3-ylmethyl]methylamide or rosiglitazone • C: (S)-2-ethoxy-3-{4-[6-(3-heptyl-1-methylureido)pyridin-2-yl]phenyl}propionic acid • Doses: 1% • Carrier: acetone (001) • Duration: 96 hours Method of evaluation: The animals are weighed at the beginning and at the end of the study. Skin” for “Skin”

GPD1 [3] = assay: Affymetrix transcriptome measurement of GPD1 expression in Fuzzy rat epidermal split after 8 days of topical treatment; format: in vivo; conditions: GPD1 mRNA (1371363_at), female FUZZY rats, topical 1%, once a day for 8 days, control condition 66
CYP2B15 [4] = assay: Affymetrix transcriptome measurement of CYP2B15 expression in Fuzzy rat epidermal split after 8 days of topical treatment; conditions: topical 1%
Procedure: The studies are carried out in female Fuzzy rats (Hsd: FUZZY-fz) 10 weeks old at the beginning of the study. The animals are treated at a dose of 1% (PPARg agonist Rosiglitazone in solution in acetone) once a day for 8 days. Two hours after the final treatment, the animals are sacrificed by euthanasia and the skin on the back is removed. After incubation in dispase, the epidermis carrying the sebaceous glands is detached from the dermis (epidermal split). After grinding of the samples, the mRNA is prepared using Qiagen columns, in accordance with the suppliers' instructions. The material thus prepared is subjected to large-scale transcriptome analysis on an Affymetrix platform. The data are subsequently standardized and, after statistical analysis, the results produced are expressed in arbitrary expression units (see below) accompanied, for each piece of data, by a statistical value for presence of the transcript (presence=1; absence=0).

SMILES	GPD1 relative induction (GPD1 [1]; 0 hours)	GPD1 relative induction (GPD1 [1]; 8 hours)	GPD1 relative induction (GPD1 [1]; 24 hours)	GPD1 relative induction (GPD1 [1]; 48 hours)	GPD1 relative induction (GPD1 [1]; 96 hours)	CYP2B15 relative induction (CYP2B15 [2]; 0 hours)	CYP2B15 relative induction (CYP2B15 [2]; 8 hours)	CYP2B15 relative induction (CYP2B15 [2]; 24 hours)	CYP2B15 relative induction (CYP2B15 [2]; 48 hours)	CYP2B15 relative induction (CYP2B15 [2]; 96 hours)	Expression after treatment with 1% Rosiglitazone (GPD1 [3])	Expression after treatment with 1% Rosiglitazone (CYP2B15 [4]; CYP2B15 mRNA (1387722_at), female FUZZY rats, once a day for 8 days, control condition 120)	Significance of the expression after treatment with 1% Rosiglitazone (CYP2B15 [4]; CYP2B15 transcript presence indicator, 8 days)
CCCCCCCNC(=O)N(C)c1cccc(-c2ccc(C[C@H](OCC)C(=O)O)cc2)n1 [C, (S)-2-ethoxy-3-{4-[6-(3-heptyl-1-methylureido)pyridin-2-yl]phenyl}propionic acid]	1	7.59	11.56	7.50	3.44	1	0.61	0.18	0.11	0.04			
CN(CCOc1ccc(CC2SC(=O)NC2=O)cc1)c1ccccn1 (centres unmarked) [A, 5-{4-[2-(methylpyridin-2-ylamino)ethoxy]benzyl}thiazolidine-2,4-dione]	1	18.52	12.53	6.93	3.42	1	1.56	0.68	0.29	0.08			
CN(CCOc1ccc(CC2SC(=O)NC2=O)cc1)c1ccccn1 (centres unmarked) [Rosiglitazone]											243 arbitrary expression units	35 arbitrary expression units	1
